According to patent publication US7960408B2, “Quinolinyl and benzothiazolyl modulators” (Amgen Inc., priority 2000, dated 2011):

Molecular target: T1, PPARγ (Homo sapiens, UniProt P37231)
T1 construct: made in house
T1 sequence (P37231 1-505): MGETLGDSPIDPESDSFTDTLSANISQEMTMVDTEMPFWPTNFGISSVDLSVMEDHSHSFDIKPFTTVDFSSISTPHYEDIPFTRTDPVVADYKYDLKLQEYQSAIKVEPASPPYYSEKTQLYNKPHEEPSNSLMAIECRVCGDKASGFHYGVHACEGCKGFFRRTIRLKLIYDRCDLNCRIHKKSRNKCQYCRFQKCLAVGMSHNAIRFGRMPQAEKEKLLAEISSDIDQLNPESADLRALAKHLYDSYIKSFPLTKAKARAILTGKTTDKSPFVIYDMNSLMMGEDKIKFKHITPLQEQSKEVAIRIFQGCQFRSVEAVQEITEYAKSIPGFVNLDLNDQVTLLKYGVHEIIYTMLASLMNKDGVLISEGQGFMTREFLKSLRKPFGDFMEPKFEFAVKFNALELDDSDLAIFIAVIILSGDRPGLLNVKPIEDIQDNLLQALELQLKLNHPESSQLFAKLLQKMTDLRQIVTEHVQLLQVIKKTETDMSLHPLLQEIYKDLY
Assay: PPARγ ligand binding assay utilizing [3H]-BRL 49653 as the radioligand
Settings: concentration required to reduce by 50% the specific binding of [3H]-BRL 49653
Description: The compounds of the present invention can be evaluated for modulation of the PPARγ receptor using assays such as those described in Jiang, et al., Nature 391:82-86 (1998), Ricote, et al., Nature 391:79-82 (1998) and Lehmann, et al., J. Biol. Chem. 270(12): 12953-12956 (1995). Alternatively, the compounds can be evaluated for their ability to displace radiolabeled BRL 49653 from a PPARγ-GST fusion protein as follows:
PPARγ-GST fusion protein (prepared according to standard procedures), [^3H]—BRL 49653 having 50 Ci/mmol specific activity, Polyfiltronics Unifilter 350 filtration plate and glutathione-Sepharose® beads (from Pharmacia: washed twice with 10× binding buffer in which BSA and DTI can be left out).
Binding buffer (10 mM Tris-HCl, pH 8.0, 50 mM KCI, 10 mM DTT, 0.02% BSA and 0.01% NP-40) is added in 80-μL amounts to the wells of the filtration plate. The test compound is then added in 10 μL of DMSO. The PPARγ-GST fusion protein and radiolabeled BRL compound are premixed in binding buffer containing 10 mM DTT and added in 10-μL amounts to the wells of the plate to provide final concentrations of 1 μg/well of PPARγ-GST fusion protein and 10 nM [^3H]—BRL 49653 compound. The plate is incubated for 15 min. Glutathione-agarose bead is added in 50 μL of binding buffer, and the plate is vigorously shaken for one hour. The plate is washed four times with 200 μL/well of binding buffer (without BSA and DTT). The bottom of the plate is sealed and 200 μL/well of scintillation cocktail is added. The top of the plate is then sealed and the radioactivity is determined.
IC50 values are defined as the concentration of test compounds required to reduce by 50% the specific binding of [^3H]—BRL 49653 and are represented by (+) <30 μM; (++) <10 μM; (+++) <1 μM.
`O=S(=O)(Nc1cc(Cl)c(Sc2cnc3ccccc3c2)c(Cl)c1)c1ccccc1Cl` [Compound 3] showed an IC50 of less than 1000 nM.
Molecule `O=C(O)c1ccc2ncc(Oc3c(Cl)cc(NS(=O)(=O)c4ccc(Cl)cc4Cl)cc3Cl)cc2c1` [Compound 47, 3-[2,6-Dichloro-4-(2,4-dichloro-benzenesulfonylamino)-phenoxy]-quinoline-6-carboxylic acid] has an IC50 of less than 1000 nM.
`O=C(O)c1cccc2cc(Oc3c(Cl)cc(NS(=O)(=O)c4ccc(Cl)cc4Cl)cc3Cl)cnc12` [Compound 48, 3-[2,6-Dichloro-4-(2,4-dichloro-benzenesulfonylamino)-phenoxy]-quinoline-8-carboxylic acid] gave an IC50 of less than 1000 nM.
`COc1cccc2sc(Oc3c(Cl)cc(NS(=O)(=O)c4ccc(C(F)(F)F)cc4Cl)cc3Cl)nc12` [Compound 427, 2-Chloro-N-[3,5-dichloro-4-(4-methoxy-benzothiazol-2-yloxy)-phenyl]-4-trifluoromethyl-benzenesulfonamide] gave an IC50 of less than 1000 nM.
For `COc1cccc2sc(Oc3c(Cl)cc(NS(=O)(=O)c4ccc(Cl)cc4Cl)cc3Cl)nc12` [Compound 428, 2,4-Dichloro-N-[3,5-dichloro-4-(4-methoxy-benzothiazol-2-yloxy)-phenyl]-benzenesulfonamide], the IC50 was less than 1000 nM.
Molecule `COc1cccc2sc(Oc3c(Cl)cc(NS(=O)(=O)c4cc(C)c(Cl)cc4Cl)cc3Cl)nc12` [Compound 429, 2,4-Dichloro-N-[3,5-dichloro-4-(4-methoxy-benzothiazol-2-yloxy)-phenyl]-5-methyl-benzenesulfonamide] has an IC50 of less than 1000 nM.
`O=S(=O)(Nc1cc(Cl)c(Oc2nc3ccc(Cl)cc3s2)c(Cl)c1)c1ccc(Br)cc1OC(F)(F)F` [Compound 433, 4-Bromo-N-[3,5-dichloro-4-(6-chloro-benzothiazol-2-yloxy)-phenyl]-2-trifluoromethoxy-benzenesulfonamide] gave an IC50 of less than 1000 nM.
For `O=S(=O)(Nc1cc(Cl)c(Oc2nc3ccc(Cl)cc3s2)c(Cl)c1)c1ccc(OC(F)(F)F)cc1` [Compound 434, N-[3,5-Dichloro-4-(6-chloro-benzothiazol-2-yloxy)-phenyl]-4-trifluoromethoxy-benzenesulfonamide], the IC50 was 1000 to 10000 nM.
`O=[N+]([O-])c1cc(C(F)(F)F)ccc1S(=O)(=O)Nc1cc(Cl)c(Oc2nc3ccc(Cl)cc3s2)c(Cl)c1` [Compound 435, N-[3,5-Dichloro-4-(6-chloro-benzothiazol-2-yloxy)-phenyl]-2-nitro-4-trifluoromethyl-benzenesulfonamide] showed an IC50 of less than 1000 nM.
`CC(=O)c1ccc(S(=O)(=O)Nc2cc(Cl)c(Oc3nc4ccc(Cl)cc4s3)c(Cl)c2)cc1` [Compound 436, 4-Acetyl-N-[3,5-dichloro-4-(6-chloro-benzothiazol-2-yloxy)-phenyl]-benzenesulfonamide] gave an IC50 of 1000 to 10000 nM.
`O=[N+]([O-])c1ccc2nc(Oc3c(Cl)cc(NS(=O)(=O)c4ccc(C(F)(F)F)cc4Cl)cc3Cl)sc2c1` [Compound 438, 2-Chloro-N-[3,5-dichloro-4-(6-nitro-benzothiazol-2-yloxy)-phenyl]-4-trifluoromethyl-benzenesulfonamide] gave an IC50 of less than 1000 nM.
Molecule `CS(=O)(=O)Nc1ccc2nc(Oc3c(Cl)cc(NS(=O)(=O)c4ccc(C(F)(F)F)cc4Cl)cc3Cl)sc2c1` [Compound 440, 2-Chloro-N-[3,5-dichloro-4-(6-methanesulfonylamino-benzothiazol-2-yloxy)-phenyl]-4-trifluoromethyl-benzenesulfonamide] has an IC50 of less than 1000 nM.
Work on `CS(=O)(=O)c1ccc2nc(Oc3c(Cl)cc(NS(=O)(=O)c4ccc(C(F)(F)F)cc4Cl)cc3Cl)sc2c1` [Compound 441, 2-Chloro-N-[3,5-dichloro-4-(6-methanesulfonyl-benzothiazol-2-yloxy)-phenyl]-4-trifluoromethyl-benzenesulfonamide] yielded an IC50 of less than 1000 nM.
`O=[N+]([O-])c1ccc2nc(Oc3ccc(NS(=O)(=O)c4ccc(C(F)(F)F)cc4Cl)cc3Cl)sc2c1` [Compound 442, 2-Chloro-N-[3-chloro-4-(6-nitro-benzothiazol-2-yloxy)-phenyl]-4-trifluoromethyl-benzenesulfonamide] gave an IC50 of less than 1000 nM.
For `CS(=O)(=O)Nc1ccc2nc(Oc3ccc(NS(=O)(=O)c4ccc(C(F)(F)F)cc4Cl)cc3Cl)sc2c1` [Compound 444, 2-Chloro-N-[3-chloro-4-(6-methanesulfonylamino-benzothiazol-2-yloxy)-phenyl]-4-trifluoromethyl-benzenesulfonamide], the IC50 was less than 1000 nM.
With `CS(=O)(=O)c1ccc2nc(Oc3ccc(NS(=O)(=O)c4ccc(C(F)(F)F)cc4Cl)cc3Cl)sc2c1` [Compound 445, 2-Chloro-N-[3-chloro-4-(6-methanesulfonyl-benzothiazol-2-yloxy)-phenyl]-4-trifluoromethyl-benzenesulfonamide] the IC50 was less than 1000 nM.
In the case of `O=[N+]([O-])c1ccc2sc(Oc3c(Cl)cc(NS(=O)(=O)c4ccc(C(F)(F)F)cc4Cl)cc3Cl)nc2c1` [Compound 455, 2-Chloro-N-[3,5-dichloro-4-(5-nitro-benzothiazol-2-yloxy)phenyl]-4-trifluoromethyl-benzenesulfonamide], the IC50 is reported as 1000 to 10000 nM.
In the case of `CS(=O)(=O)Nc1ccc2sc(Oc3c(Cl)cc(NS(=O)(=O)c4ccc(C(F)(F)F)cc4Cl)cc3Cl)nc2c1` [Compound 457, 2-Chloro-N-[3,5-dichloro-4-(5-methanesulfonylamino-benzothiazol-2-yloxy)-phenyl]-4-trifluoromethyl-benzenesulfonamide], the IC50 is reported as less than 1000 nM.
For `CS(=O)(=O)c1ccc2sc(Oc3c(Cl)cc(NS(=O)(=O)c4ccc(C(F)(F)F)cc4Cl)cc3Cl)nc2c1` [Compound 458, 2-Chloro-N-[3,5-dichloro-4-(5-methanesulfonyl-benzothiazol-2-yloxy)-phenyl]-4-trifluoromethyl-benzenesulfonamide], the IC50 was less than 1000 nM.
With `CC(C)(C)c1ccc(S(=O)(=O)Nc2cc(Cl)cc(Oc3nc4cc(Cl)ccc4s3)c2)cc1` [Compound 501, 4-tert-Butyl-N-[3-chloro-5-(5-chloro-benzothiazole-2-yloxy)]-benzenesulfonamide] the IC50 was greater than 30000 nM.
`COc1ccc(OC)c(S(=O)(=O)Nc2cc(Cl)cc(Oc3nc4cc(Cl)ccc4s3)c2)c1` [Compound 502, N-[3-Chloro-5-(5-chloro-benzothiazole-2-yloxy)-phenyl]-2,5-dimethoxybenzenesulfonamide] gave an IC50 greater than 30000 nM.
For `O=S(=O)(Nc1ccc(Oc2nc3c(Cl)cccc3s2)c(Cl)c1)c1ccc(C(F)(F)F)cc1Cl` [Compound 503, 2-Chloro-N-[3-chloro-4-(4-chloro-benzothiazol-2-oxy)-phenyl]-4-trifluoromethylbenzenesulfonamide], the IC50 was 10000 to 30000 nM.
Work on `Cc1cccc2sc(Oc3ccc(NS(=O)(=O)c4ccc(C(F)(F)F)cc4Cl)cc3Cl)nc12` [Compound 504, 2-Chloro-N-[3-chloro-4-(4-methyl-benzothiazol-2-oxy)-phenyl]-4-trifluoromethylbenzenesulfonamide] yielded an IC50 of 10000 to 30000 nM.
`Cc1cccc2sc(Oc3c(Cl)cc(NS(=O)(=O)c4ccc(C(F)(F)F)cc4Cl)cc3Cl)nc12` [Compound 505, 2-Chloro-N-[3,5-dichloro-4-(4-methyl-benzothiazol-2-oxy)-phenyl]-4-trifluoromethylbenzenesulfonamide] gave an IC50 of 10000 to 30000 nM.

System: not given
Assay: not given
Settings: not given
For `O=S(=O)(Nc1cc(Cl)c(Sc2cnc3ccccc3c2)c(Cl)c1)c1ccccc1Cl` [Compound 3], the melting point was 219.6 °C.
For `O=C(O)c1ccc2ncc(Oc3c(Cl)cc(NS(=O)(=O)c4ccc(Cl)cc4Cl)cc3Cl)cc2c1` [Compound 47, 3-[2,6-Dichloro-4-(2,4-dichloro-benzenesulfonylamino)-phenoxy]-quinoline-6-carboxylic acid], the melting point was 228 to 232 °C.
For `O=C(O)c1cccc2cc(Oc3c(Cl)cc(NS(=O)(=O)c4ccc(Cl)cc4Cl)cc3Cl)cnc12` [Compound 48, 3-[2,6-Dichloro-4-(2,4-dichloro-benzenesulfonylamino)-phenoxy]-quinoline-8-carboxylic acid], the melting point was 263 to 266 °C.
